Assay results reported in publication PMC10552397 (Cell Communication and Signaling : CCS, 2023).
Read-outs that look alike come from different tables or passages of the source.

Tests used:
HeLa wt cells [1] = assay: MTT cell viability assay, HeLa wt; type: cell-based; conditions: Homo sapiens
Method: (§2) Cell viability was measured using the MTT (3-(4,5-dimethylthiazol-2-yl)-2,5-diphenyltetrazolium bromide) assay. HeLa cells were seeded in 96-well plates with a density of 5*10^3 cells/well. […] After the incubation time, 20 µL of a 5 mg/mL MTT stock solution (ROTH, Karlsruhe, Germany, #4022.3) were added to the cells and they were incubated at 37 °C and 5% CO2 in a humidified atmosphere for 30 min. Upon removal of the MTT-containing medium 100 µL DMSO per well were added for extraction of the formazan. Absorbance was measured at 570 nm and 650 nm (reference) with a microplate reader (SynergyMx, BioTek, Winooski, VT, USA). After subtraction of the reference value, the mean of the absorbance of the solvent control was set as 100% and the relative viability was calculated for each sample.
(§3) All IC50 values were calculated using GraphPad Prism 7.01.

HeLa wt cells [2] = assay: Immunofluorescence of GRASP55 and LC3; type: cell-based; conditions: 6 h
Method: (§1) For immunofluorescence microscopy, HeLa cells were seeded on glass coverslips in 24-well plates. After treatment, cells were fixed in 4% paraformaldehyde for 15 min on ice, quenched with 50 mM NH4Cl for 15 min and permeabilized with 50 µg/mL digitonin (Sigma-Aldrich, St. Louis, MO, USA, #D141) for 5 min. Fixed samples were blocked with 3% BSA (Roth, Karlsruhe, Germany, #8076) for 30 min or overnight and incubated with primary antibodies diluted in 3% BSA for 2 h. Samples were then washed three times with DPBS, incubated with the appropriate secondary antibodies diluted in 3% BSA for 30 min and washed three times with DPBS. Afterwards, cells were embedded in ProLong Glass Antifade Mountant (Thermo Fisher Scientific, Waltham, MA, USA, #P36980) containing 1 µg/mL DAPI (Roth, Karlsruhe, Germany, #6335.1). Images were recorded with an Axio Observer 7 fluorescence microscope (Carl Zeiss Microscopy, Oberkochen, Germany) using a 40x/1,4 Oil DIC M27 Plan-Apochromat objective (Carl Zeiss Microscopy, Oberkochen, Germany) and an ApoTome 2 (Carl Zeiss Microscopy, Oberkochen, Germany).

HeLa wt cells [3] = assay: Immunofluorescence of LC3 and LAMP1; type: cell-based; conditions: 2 h; prodigiosin 100 nM, BafA1 10 nM
Method: as §1

HeLa GRASP55 KO cells = assay: cells; conditions: Homo sapiens, read-out: IC50 value GRASP55 KO
Method: as §2
GRASP55 KO cells were generated using the CRISPR/Cas9 system developed by the Zhang lab [59]. Double-stranded DNA oligos (5´-[sequence]-3´, 3´-[sequence]-5´), encoding guide RNAs (gRNAs) against the target gene were cloned into the Bbsl restriction site of pSpCas9(BB)-2A-GFP (PX458) vector gifted from Feng Zhang (Addgene plasmid #48,138; http://n2t.net/addgene:48138; RRID:Addgene_48138). […]
as §3

GRASP55 = GRASP55 (Homo sapiens, UniProt Q9H8Y8); assay: CETSA (immunoblot quantification of non-denatured GRASP55); type: binding; set-up: endogenous in cells; host or cells: HeLa wt cells; conditions: 100 nM, 6 h, HeLa wt, vs DMSO
Method: Adherent cells were washed in the dish once with DPBS and harvested by Trypsin–EDTA (0.25%, Thermo Fisher Scientific, Waltham, MA, USA, #25,200,056) treatment. After addition of 35 mL DPBS, the cells were pelleted by centrifugation (300 rcf, 5 min, 4 °C), and washed twice by re-suspending and pelleting using 45 mL and 1 mL DPBS, respectively, to remove excess trypsin and for transfer into pre-weighed 2 mL Eppendorf tubes to determine the cell pellet wet weights as quality check after centrifugation (300 rcf, 5 min, 4 °C) and complete removal of the supernatant. […]
After temperature treatment, samples were supplemented with lysis buffer (final concentrations: 0.36 U/µL benzonase, 1.5 mM MgCl2, 1 mM Na3VO4, 10 mM NaF, 2.5 mM Na4P2O7, 0.8% w/v NP-40) for 1 h on ice. […] The total protein concentration of the resulting cell extracts containing the fraction of soluble, non-denatured proteins was determined (Pierce 660 nm Protein Assay, BSA as standard). […] The two (37 °C or 50 °C) x ten (concentrations) x three (replicates) = 60 TPP-CCR samples and two (treatment and control) x ten (temperatures) x three (replicates) = 60 TPP-TR samples were analyzed by LC–MS/MS. GRASP55 was additionally quantified from the TPP-TR samples by immunoblotting as described in the respective section. […]

For `CCCCCC1=C/C(=C/c2[nH]c(-c3ccc[nH]3)cc2OC)N=C1C` [Prodigiosin, prodigiosin], which IC50 (HeLa wt cells [1]; 24 h, Fig. 1B, read-out: IC50 (24 h)) is on record?
The IC50 was 0.685 µM.

What about the IC50 (HeLa wt cells [1]; 24 h, Fig. 5C (independent of Fig. 1B), read-out: IC50 value wt) of the same compound?
The IC50 was 0.547 µM.

And the IC50 (HeLa wt cells [1]; 72 h, Fig. 1B, read-out: IC50 (72 h))?
Its IC50 is 0.077 µM.

What about the IC50 (HeLa wt cells [1]; 72 h, Fig. 5C (independent of Fig. 1B), read-out: IC50 value wt) of the same compound?
The IC50 was 0.0639 µM.

What about the “co-localization of LC3 and GRASP55” value (HeLa wt cells [2]; BafA1 10 nM) of the same compound?
The value was “highly significant, dose-dependent increase”.

What about the “number of LC3 dots” value (HeLa wt cells [2]; BafA1 10 nM) of the same compound?
Its value is “increased dose-dependently”.

What about the “mean area of GRASP55 dots” value (HeLa wt cells [2]; all concentrations, vs DMSO) of the same compound?
Its value is “significantly increased”.

And the LC3-positive structures (HeLa wt cells [3])?
The LC3-positive structures was “increase”.

What about the “co-localization of LC3- and LAMP1-positive structures” value (HeLa wt cells [3]) of the same compound?
Its value is “highly significant increase”.

What about the IC50 (HeLa GRASP55 KO cells; 24 h) of the same compound?
Its IC50 is 1.42 µM.

What about the IC50 (HeLa GRASP55 KO cells; 72 h) of the same compound?
The IC50 was 0.0833 µM.

What about the “dif GRASP55 (CETSA), melting point difference” value (GRASP55) of the same compound?
The value was 4.5.
